The source of these data is patent US10782295B2, “Cysteine-reactive ligand discovery in proteomes” (THE SCRIPPS RESEARCH INSTITUTE, priority 2013, dated 2020).

This assay concerns the target T1, MMS19 (Homo sapiens, UniProt Q96T76).
T1 construct: directly in native proteomes; endogenous in cells; host or cells: MDA-MB-231
T1 sequence (Q96T76 1-1030): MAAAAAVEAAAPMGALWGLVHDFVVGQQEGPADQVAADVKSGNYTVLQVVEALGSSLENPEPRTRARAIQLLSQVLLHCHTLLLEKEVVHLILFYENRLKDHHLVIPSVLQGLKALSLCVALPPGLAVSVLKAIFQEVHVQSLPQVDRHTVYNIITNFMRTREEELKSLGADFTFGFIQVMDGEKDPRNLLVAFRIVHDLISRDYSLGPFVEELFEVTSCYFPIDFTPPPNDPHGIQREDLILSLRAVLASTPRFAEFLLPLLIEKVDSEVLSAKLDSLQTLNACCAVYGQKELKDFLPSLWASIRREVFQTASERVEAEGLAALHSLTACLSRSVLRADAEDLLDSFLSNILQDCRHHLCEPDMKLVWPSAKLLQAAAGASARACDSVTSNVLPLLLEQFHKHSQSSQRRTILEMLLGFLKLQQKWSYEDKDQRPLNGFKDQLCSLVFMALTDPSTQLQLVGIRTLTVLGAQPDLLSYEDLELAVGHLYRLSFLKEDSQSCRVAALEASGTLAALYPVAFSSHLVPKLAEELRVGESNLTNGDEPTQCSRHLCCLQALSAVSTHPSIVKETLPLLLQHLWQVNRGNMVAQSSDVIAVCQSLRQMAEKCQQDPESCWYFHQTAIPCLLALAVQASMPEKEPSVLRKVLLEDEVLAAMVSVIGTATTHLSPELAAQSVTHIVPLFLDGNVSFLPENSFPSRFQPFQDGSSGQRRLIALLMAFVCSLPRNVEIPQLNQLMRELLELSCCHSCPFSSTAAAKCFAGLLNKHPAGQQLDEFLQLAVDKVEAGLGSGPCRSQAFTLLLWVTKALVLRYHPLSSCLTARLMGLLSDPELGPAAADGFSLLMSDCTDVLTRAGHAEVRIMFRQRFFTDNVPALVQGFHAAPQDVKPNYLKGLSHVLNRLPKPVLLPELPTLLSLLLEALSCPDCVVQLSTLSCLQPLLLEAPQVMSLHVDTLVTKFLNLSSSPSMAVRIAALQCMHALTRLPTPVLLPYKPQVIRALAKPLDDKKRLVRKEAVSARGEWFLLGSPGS
Nature of the assay: competitive isoTOP-ABPP, MDA-MB-231 soluble proteome. Format: binding. To be noted: 60 min; for R value (isoTOP-ABPP ratio heavy/light) for IA-labeled cysteine of MMS19: 100 μM LDE, peptide LMGLLSDPELGPAAADGFSLLMSDC*TDVLTR.

For `CCCCCCCCCCCCC/C=C/C=O` [2-HD, 2-trans-hexadecenal], the “R value (isoTOP-ABPP ratio heavy/light) for IA-labeled cysteine of MMS19” value (from here on “R value (isoTOP-ABPP ratio heavy/light)”) was 1.1.
Regarding `CCCCCC(O)/C=C/C=O` (stereo not shown) [4-HNE, 4-Hydroxynonenal], the “R value (isoTOP-ABPP ratio heavy/light)” value is given as 1.78.
Consider `CCCCC/C=C/C=C1/C(=O)C=C[C@@H]1C/C=C\CCCC(=O)O` [PGJ2, 15-deoxy-Δ12,14-prostaglandin J2], for which the “R value (isoTOP-ABPP ratio heavy/light)” value was >15. In addition, the “blockade of IA-probe labeling of Cys848 of MMS19” value (100 μM) is “completely blocked”.
